Where a name gives a salt, the structure may show the parent alone.
Biological target: serotonin 5-HT2C receptor (Homo sapiens, UniProt P28335, I156V/I160V/N158S)
Assay: cell-based
Conditions: CHO, read-out: ratio to maximum response by 5-HT

serotonin 5-HT2C receptor, sequence (P28335 33-458 I156V/N158S/I160V limits assumed): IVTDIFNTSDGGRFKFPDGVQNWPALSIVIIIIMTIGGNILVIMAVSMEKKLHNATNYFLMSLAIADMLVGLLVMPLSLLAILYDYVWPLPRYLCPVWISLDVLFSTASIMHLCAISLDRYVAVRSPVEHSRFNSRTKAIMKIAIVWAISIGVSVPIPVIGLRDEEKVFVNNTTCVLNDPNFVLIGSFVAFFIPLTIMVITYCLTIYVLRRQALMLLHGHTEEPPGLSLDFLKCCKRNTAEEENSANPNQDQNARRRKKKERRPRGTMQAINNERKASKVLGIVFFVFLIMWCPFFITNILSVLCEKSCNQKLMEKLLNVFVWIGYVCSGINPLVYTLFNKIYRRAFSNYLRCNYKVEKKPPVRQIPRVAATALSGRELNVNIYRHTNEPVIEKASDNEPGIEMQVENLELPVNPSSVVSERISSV

Row | Compound | Emax
1 | Clc1ccc2c(c1)CN1CCNCC1CO2 (stereo not drawn) [Example 7, 8-chloro-1,2,3,4,12,12a-hexahydro-6H-pyrazino[2,1-c][1,4]benzoxazepine dihydrochloride] | 107%
2 | FC(F)(F)c1ccc2c(c1)CN1CCNCC1CO2 (stereo not drawn) [Example 9, 8-(trifluoromethyl)-1,2,3,4,12,12a-hexahydro-6H-pyrazino[2,1-c][1,4]benzoxazepine dihydrochloride] | 91.5%
3 | c1ccc2c(c1)CN1CCNCC1CO2 (stereo not drawn) [Example 2, 1,2,3,4,12,12a-hexahydro-6H-pyrazino[2,1-c][1,4]benzoxazepine dihydrochloride] | 116%
4 | O=C1c2cc(Br)ccc2OCC2CNCCN12 (stereo not drawn) [Example 10, 8-bromo-1,2,3,4,12,12a-hexahydro-6H-pyrazino[2,1-c][1,4]benzoxazepin-6-one hydrochloride] | 107%
5 | Cc1ccc2c(c1)C(=O)N1CCNCC1CO2 (stereo not drawn) [Example 13, 8-methyl-1,2,3,4,12,12a-hexahydro-6H-pyrazino[2,1-c][1,4]benzoxazepin-6-one hydrochloride] | 96.9%
6 | O=C1c2c(Br)cccc2OCC2CNCCN12 (stereo not drawn) [Example 41, 7-bromo-1,2,3,4,12,12a-hexahydro-6H-pyrazino[2,1-c][1,4]benzoxazepin-6-one hydrochloride] | 96%
7 | O=C1c2c(cccc2C(F)(F)F)OCC2CNCCN12 (stereo not drawn) [Example 42, 7-(trifluoromethyl)-1,2,3,4,12,12a-hexahydro-6H-pyrazino[2,1-c][1,4]benzoxazepin-6-one hydrochloride] | 88.4%
8 | O=C1c2cc(C(F)(F)F)ccc2OCC2CNCCN12 (stereo not drawn) [Example 8, 8-(trifluoromethyl)-1,2,3,4,12,12a-hexahydro-6H-pyrazino[2,1-c][1,4]benzoxazepin-6-one hydrochloride] | 96.5%
9 | COc1ccc2c(c1)C(=O)N1CCNCC1CO2 (stereo not drawn) [Example 31, 8-methoxy-1,2,3,4,12,12a-hexahydro-6H-pyrazino[2,1-c][1,4]benzoxazepin-6-one hydrochloride] | 93.8%
10 | O=C1c2c(Cl)cccc2OCC2CNCCN12 (stereo not drawn) [Example 4, 7-chloro-1,2,3,4,12,12a-hexahydro-6H-pyrazino[2,1-c][1,4]benzoxazepin-6-one hydrochloride] | 94.6%
11 | Cc1cccc2c1OCC1CNCCN1C2=O (stereo not drawn) [Example 37, 10-methyl-1,2,3,4,12,12a-hexahydro-6H-pyrazino[2,1-c][1,4]benzoxazepin-6-one hydrochloride] | 98.3%
12 | O=C1c2ccc(Cl)cc2OCC2CNCCN12 (stereo not drawn) [Example 5, 9-chloro-1,2,3,4,12,12a-hexahydro-6H-pyrazino[2,1-c][1,4]benzoxazepin-6-one hydrochloride] | 101%
13 | O=C1c2cc(Cl)ccc2OCC2CNCCN12 (stereo not drawn) [Example 6, 8-chloro-1,2,3,4,12,12a-hexahydro-6H-pyrazino[2,1-c][1,4]benzoxazepin-6-one hydrochloride] | 99.4%
14 | O=C1c2ccccc2OCC2CNCCN12 (stereo not drawn) [Example 1, 1,2,3,4,12,12a-hexahydro-6H-pyrazino[2,1-c][1,4]benzoxazepin-6-one hydrochloride] | 114%
15 | O=C1c2cccc(Cl)c2OCC2CNCCN12 (stereo not drawn) [Example 3, 10-chloro-1,2,3,4,12,12a-hexahydro-6H-pyrazino[2,1-c][1,4]benzoxazepin-6-one hydrochloride] | 98.2%
